Test results as given in ChEMBL document CHEMBL5038666, “Discovery of DNA-Targeting HDAC Inhibitors with Potent Antitumor Efficacy In Vivo That Trigger Antitumor Immunity” (J Med Chem, 2022).
The source made the active and inactive calls. The rule behind the calls is not given here.

Columns and labels:
[1] = target: T1, Histone deacetylase (Homo sapiens) (UniProt Q13547+O15379+Q9UBN7+Q92769+Q9UQL6+Q8WUI4+Q9BY41+Q96DB2+P56524+Q9UKV0+Q969S8); assay: Inhibition of HDAC in human KG1 cells assessed as increase in acetylation of alpha tubulin measured after 24 hrs by Western blot analysis; type: cell-based; conditions: KG-1, dose 0.5-2.5 µM
Calf thymus DNA = assay: Binding affinity to calf thymus DNA assessed as increase in absorption at 20 uM by UV-vis absorption spectroscopy; type: nucleic-acid assay; conditions: Bos taurus
B16-F10 [2] = assay: Antitumor activity against mouse B16-F10 cells xenografted in C57BL/6J mouse assessed as change in tumor cell morphology into normal tissue at 60 mg/kg, IG administered for 12 days by H and E staining based histopathological analysis; type: functional, organism-based; conditions: time 12.0 day
Histone deacetylase 1 = Histone deacetylase 1 (Homo sapiens, UniProt Q13547); assay: Inhibition of HDAC1 (unknown origin) using fluorogenic substrate incubated for 30 mins by fluorescence based assay
Histone deacetylase 1, sequence (Q13547 whole entry): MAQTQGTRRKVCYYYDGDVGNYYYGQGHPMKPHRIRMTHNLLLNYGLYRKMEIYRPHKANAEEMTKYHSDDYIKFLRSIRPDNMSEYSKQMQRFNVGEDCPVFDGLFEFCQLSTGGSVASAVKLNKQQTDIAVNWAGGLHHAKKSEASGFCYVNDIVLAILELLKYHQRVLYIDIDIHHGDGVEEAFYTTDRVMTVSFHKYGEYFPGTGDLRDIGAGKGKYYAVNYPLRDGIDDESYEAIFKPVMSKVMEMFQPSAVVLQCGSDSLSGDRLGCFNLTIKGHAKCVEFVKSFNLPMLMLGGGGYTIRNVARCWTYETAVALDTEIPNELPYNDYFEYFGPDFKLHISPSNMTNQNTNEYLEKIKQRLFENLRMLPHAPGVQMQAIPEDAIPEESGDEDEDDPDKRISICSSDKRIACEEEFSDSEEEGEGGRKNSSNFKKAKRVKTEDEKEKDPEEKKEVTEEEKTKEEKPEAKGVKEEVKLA

HEL = assay: cells; type: functional, cell-based; conditions: Homo sapiens, 48 h
Description: Antiproliferative activity against HEL cells assessed as inhibition of cell growth measured after 48 hrs by MTT assay

KG-1 [3] = assay: Induction of apoptosis in human KG-1 cells assessed as increase in cleaved active caspase 3 level at 0.5 to […] measured after 24 hrs by Western blot analysis; type: functional, cell-based; conditions: dose 0.5-2.5 µM
[4] = target: T1, Histone deacetylase (Homo sapiens); assay: Inhibition of HDAC in human KG-1 cells assessed as increase in acetylation of histone H3 measured after 24 hrs by Western blot analysis; type: cell-based; conditions: dose 0.5-2.5 µM
[5] = target: T2, Protein deacetylase HDAC6 (Homo sapiens, UniProt Q9UBN7); assay: Inhibition of HDAC6 (unknown origin) using fluorogenic substrate incubated for 30 mins by fluorescence based assay
T2 sequence (Q9UBN7 whole entry): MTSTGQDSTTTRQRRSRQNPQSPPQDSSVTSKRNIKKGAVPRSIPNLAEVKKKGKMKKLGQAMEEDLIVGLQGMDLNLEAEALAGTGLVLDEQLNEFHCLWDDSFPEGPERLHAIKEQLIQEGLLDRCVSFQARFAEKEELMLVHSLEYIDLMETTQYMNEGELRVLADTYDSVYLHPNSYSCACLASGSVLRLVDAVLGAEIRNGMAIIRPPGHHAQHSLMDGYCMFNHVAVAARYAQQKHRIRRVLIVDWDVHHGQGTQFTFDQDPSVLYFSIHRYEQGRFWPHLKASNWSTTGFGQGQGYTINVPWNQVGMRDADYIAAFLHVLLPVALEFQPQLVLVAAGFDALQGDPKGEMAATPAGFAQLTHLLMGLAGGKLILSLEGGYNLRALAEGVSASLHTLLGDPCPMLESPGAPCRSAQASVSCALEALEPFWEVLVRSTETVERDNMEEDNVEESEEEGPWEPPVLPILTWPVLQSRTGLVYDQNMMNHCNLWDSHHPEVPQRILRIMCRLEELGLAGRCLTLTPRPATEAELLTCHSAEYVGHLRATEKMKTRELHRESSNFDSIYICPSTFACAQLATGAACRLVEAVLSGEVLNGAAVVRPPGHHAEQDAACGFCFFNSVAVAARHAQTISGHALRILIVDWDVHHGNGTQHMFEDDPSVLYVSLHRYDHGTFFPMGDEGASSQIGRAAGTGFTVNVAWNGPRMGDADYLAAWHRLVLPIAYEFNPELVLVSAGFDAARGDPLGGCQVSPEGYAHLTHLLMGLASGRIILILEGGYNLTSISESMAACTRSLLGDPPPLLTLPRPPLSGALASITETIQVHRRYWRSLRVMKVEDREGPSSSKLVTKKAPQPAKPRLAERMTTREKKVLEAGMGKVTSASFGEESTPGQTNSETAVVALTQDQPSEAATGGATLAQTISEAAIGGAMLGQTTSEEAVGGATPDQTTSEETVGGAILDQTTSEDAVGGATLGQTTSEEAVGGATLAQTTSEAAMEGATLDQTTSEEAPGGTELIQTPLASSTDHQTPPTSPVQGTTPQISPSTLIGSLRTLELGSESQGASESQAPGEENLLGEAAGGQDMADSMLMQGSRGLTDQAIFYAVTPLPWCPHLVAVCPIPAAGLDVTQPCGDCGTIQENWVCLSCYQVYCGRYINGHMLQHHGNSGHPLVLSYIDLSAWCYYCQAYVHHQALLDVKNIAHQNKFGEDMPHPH

B16-F10 [6] = assay: Antitumor immunity against mouse B16-F10 cells implanted in C57BL/6J mouse assessed as increase in proportion of T cells in spleen by flow cytometry analysis; type: functional, cell-based
[7] = Toxicity in C57BL/6J mouse implanted with mouse B16-F10 cells assessed as liver damage at 60 mg/kg, IG administered for 12 days H and E staining based histopathological analysis; type: organism-based; conditions: in vivo, po, 288 h, time 12 day
B16-F10 [8] = assay: Antitumor activity against mouse B16-F10 cells implanted in C57BL/6J mouse assessed as reduction on tumor size at 60 mg/kg, IG administered for 12 days; type: functional, organism-based; conditions: time 12.0 day
KG-1 [9] = assay: Downregulation of SSRP-1 expression in human KG-1 cells assessed as chromatin damage at 0.5 to […] measured after 24 hrs by Western blot analysis; type: functional, cell-based; conditions: dose 0.5-2.5 µM
[10] = Toxicity in C57BL/6J mouse implanted with mouse B16-F10 cells assessed as spleen damage at 60 mg/kg, IG administered for 12 days H and E staining based histopathological analysis; type: organism-based; conditions: in vivo, po, 288 h, time 12 day
B16-F10 [11] = assay: Antitumor immunity against mouse B16-F10 cells implanted in C57BL/6J mouse assessed as fold increase of CD3+ T cells in spleen by flow cytometry analysis relative to control; type: functional
B16-F10 [12] = assay: Antitumor immunity against mouse B16-F10 cells implanted in C57BL/6J mouse assessed as fold reduction in M2 macrophages in tumor microenvironment by flow cytometry analysis relative to control; type: functional
B16-F10 [13] = assay: Antitumor immunity against mouse B16-F10 cells implanted in C57BL/6J mouse assessed as fold increase in IFN-gamma secretion by flow cytometry analysis relative to control; type: functional
B16-F10 [14] = assay: Antitumor immunity against mouse B16-F10 cells implanted in C57BL/6J mouse assessed as fold increase of CD8+ T cells in spleen by flow cytometry analysis relative to control; type: functional
[15] = Toxicity in C57BL/6J mouse implanted with mouse B16-F10 cells assessed as lung damage at 60 mg/kg, IG administered for 12 days H and E staining based histopathological analysis; type: organism-based; conditions: in vivo, po, 288 h, time 12 day
B16-F10 [16] = assay: Antitumor immunity against mouse B16-F10 cells implanted in C57BL/6J mouse assessed as fold increase in ICOS expression by flow cytometry analysis relative to control; type: functional
B16-F10 [17] = assay: Antitumor immunity against mouse B16-F10 cells implanted in C57BL/6J mouse assessed as increase in proportion of dendritic cells by flow cytometry analysis; type: functional, cell-based
B16-F10 [18] = assay: Antitumor immunity against mouse B16-F10 cells implanted in C57BL/6J mouse assessed as fold increase in CD69 expression by flow cytometry analysis relative to control; type: functional
B16-F10 [19] = assay: Antitumor immunity against mouse B16-F10 cells implanted in C57BL/6J mouse assessed as fold increase in CD107a expression by flow cytometry analysis relative to control; type: functional
B16-F10 [20] = assay: Antitumor immunity against mouse B16-F10 cells implanted in C57BL/6J mouse assessed as fold increase of CD4+ T cells in spleen by flow cytometry analysis relative to control; type: functional

For `O=C(CCCCCCOc1cccc(-c2nc3ccccc3[nH]2)c1)NO`, the Activity [1] was “Dose-Dependent Effect”, the Activity (Calf thymus DNA) was “Active” and the Activity (B16-F10 [2]) was “Active”. The IC50 (Histone deacetylase 1) was 24 nM, the IC50 (HEL) was 20 nM and the Activity (KG-1 [3]) was “Active”. For the same compound, the Activity [4] was “Dose-Dependent Effect”, the IC50 [5] was 47 nM and the Activity (B16-F10 [6]) was “Active”. The Activity [7] was “Non-Toxic”, the Activity (B16-F10 [8]) was “Active” and the Activity (KG-1 [9]) was “Active”. The Activity [10] was “Non-Toxic”.
For `O=C(CCCCCCCOc1cccc(-c2nc3ccccc3[nH]2)c1)NO`, the “fold change (FC)” value (B16-F10 [11]) was 1.6, the Activity (B16-F10 [2]) was “Active” and the IC50 (Histone deacetylase 1) was 52 nM. The “fold change (FC)” value (B16-F10 [12]) was 1.5, the “fold change (FC)” value (B16-F10 [13]) was 1.5 and the “fold change (FC)” value (B16-F10 [14]) was 1.5. For the same compound, the IC50 (HEL) was 360 nM, the Activity [15] was “Non-Toxic” and the “fold change (FC)” value (B16-F10 [16]) was 1.5. For the same compound, the Activity (B16-F10 [17]) was “inactive”, the IC50 [5] was 9.2 nM and the Activity [7] was “Non-Toxic”. The Activity (B16-F10 [8]) was “Active”, the “fold change (FC)” value (B16-F10 [18]) was 1.5 and the “fold change (FC)” value (B16-F10 [19]) was 1.5. The “fold change (FC)” value (B16-F10 [20]) was 2 and the Activity [10] was “Non-Toxic”.
